The values below are quoted from earlier work in US20240216490A1, “Autoantigens Engineered to Suppress Autoimmune Response” (Osprey Biopharmaceuticals, Inc., priority 2022, published 2024).

Usually IC50 stands for the midpoint of a concentration-inhibition curve.

Molecules are shown by their SMILES.

The data set concerns the target T1, Siglec-2 (CD22) (Homo sapiens, UniProt P20273).
T1 sequence (P20273 20-847): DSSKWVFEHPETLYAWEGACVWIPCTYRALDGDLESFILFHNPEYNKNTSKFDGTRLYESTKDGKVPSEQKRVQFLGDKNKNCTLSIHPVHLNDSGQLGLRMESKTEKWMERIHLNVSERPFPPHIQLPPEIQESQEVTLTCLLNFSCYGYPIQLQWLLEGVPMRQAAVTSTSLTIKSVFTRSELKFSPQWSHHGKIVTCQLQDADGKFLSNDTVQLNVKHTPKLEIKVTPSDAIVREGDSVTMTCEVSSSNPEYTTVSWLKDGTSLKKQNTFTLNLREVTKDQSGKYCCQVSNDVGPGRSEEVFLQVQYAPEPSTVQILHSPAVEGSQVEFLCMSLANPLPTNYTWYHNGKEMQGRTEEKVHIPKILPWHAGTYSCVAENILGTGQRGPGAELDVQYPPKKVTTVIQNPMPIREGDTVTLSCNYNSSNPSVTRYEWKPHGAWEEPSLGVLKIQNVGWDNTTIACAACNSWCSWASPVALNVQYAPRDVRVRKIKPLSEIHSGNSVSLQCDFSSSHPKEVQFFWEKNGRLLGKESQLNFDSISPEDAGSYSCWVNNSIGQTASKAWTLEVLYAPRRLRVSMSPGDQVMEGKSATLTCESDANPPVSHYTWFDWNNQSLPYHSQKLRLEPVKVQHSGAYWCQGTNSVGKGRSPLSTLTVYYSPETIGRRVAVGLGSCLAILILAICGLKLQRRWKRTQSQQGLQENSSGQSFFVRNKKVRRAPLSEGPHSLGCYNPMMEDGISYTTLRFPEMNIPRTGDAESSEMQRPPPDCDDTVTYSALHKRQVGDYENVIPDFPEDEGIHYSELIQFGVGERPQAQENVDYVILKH
Conditions: value from cited reference; cited from earlier work.

As to `CO[C@]1(C(=O)O)CC(O)[C@@H](NC(C)=O)C([C@H](O)[C@H](O)CNC(=O)c2ccc(-c3ccccc3)cc2)O1` (some centres unmarked), the concentration for half-maximal inhibition (IC50) was 4 µM.
For the compound `COc1ccc(OC2OC(COC3(C(=O)O)CC(O)C(NC(=O)CO)C(C(O)C(O)CNCc4ccc(-c5ccc(O)cc5)cc4)O3)C(O)C(O)C2O)cc1` (centres unmarked), the IC50 was 0.24 µM.
Turning to `O=C(Cc1ccc(-c2ccc(O)cc2)cc1)NCC(O)C(O)C1OC(OCc2ccccc2)(C(=O)O)CC(O)C1NC(=O)CO` (centres unmarked), the half-inhibitory concentration (IC50) was 0.1 µM.
Regarding `O=C(Cc1ccc(-c2ccc(O)cc2)cc1)NC[C@@H](O)C(O)C1O[C@@](OCc2cccc(Cl)c2Cl)(C(=O)O)CC(O)[C@H]1NS(=O)(=O)c1ccccc1[N+](=O)[O-]` (some centres unmarked), the concentration for half-maximal inhibition (IC50) was 0.06 µM.
`COC1(C(=O)O)CC(NS(=O)(=O)c2ccc(C)cc2)C(NC(C)=O)C(C(O)C(O)CNC(=O)c2ccc(-c3ccccc3)cc2)O1` (centres unmarked): the IC50 is 0.15 µM.
